Legend:
[1] = Antiinflammatory in rat peritoneal mast cell assessed as inhibition of histamine release; format: functional, cell-based
[2] = Antiinflammatory in rat peritoneal mast cell assessed as inhibition of histamine release at 30 uM; format: functional; design: scale not given: the % may be the effect or the level left
PBMC = assay: Inhibition of PMA or fMLP-induced human PBMC activation assessed as superoxide production at 30 uM; format: functional; design: scale not given: the % may be the effect or the level left

SMILES	IC50 [1]	Activity [2]	Activity (PBMC)
CC(C)[C@@H]1CC(O)O[C@H](C(C)[C@H]2CC(=O)[C@H]3[C@@H]4[C@@H](O)[C@H](O)[C@H]5[C@@H](O)[C@H](O)CC[C@]5(C)[C@H]4CC[C@]23C)C1 (stereo partly drawn)	800 nM		
CC(C)C(CCC(C)[C@H]1CC(=O)[C@H]2[C@@H]3[C@@H](O)[C@H](O)[C@H]4C[C@@H](O)CC[C@]4(C)[C@H]3CC[C@]12C)C(C)O (stereo partly drawn)		72%	76%

Source: ChEMBL document CHEMBL1148128, “Clathriol, a novel polyoxygenated 14beta steroid isolated from the New Zealand marine sponge Clathria lissosclera” (J Nat Prod, 2002)
